Test results published in patent US11464770B2, “Anticancer pharmaceutical composition” (NATIONAL CANCER CENTER, priority 2016, dated 2022).

Tested on: zebrafish
Test: Cardiotoxicity experiment using zebrafish (heart rate, lethality)
Assay type: in vivo
Details: 10 uM, n = 10

COc1ccc(CCN2CCC(Nc3nc4ccccc4n3Cc3ccc(F)cc3)CC2)cc1 [Astemizole, reference compound]
Changes (%) in heart rate (mean): 46.2% | Lethality: 0/10
